From US8048889B2, “3,4-disubstituted coumarin and quinolone compounds” (XTL Biopharmaceuticals Ltd., priority 2005, dated 2011)

Assays:
[1] = test system: HCV Replicon (HCV IRES driven luciferase reporter in Huh-Luc-Neo cells); assay: HCV Replicon Luciferase Assay; format: cell-based; conditions: Hepatitis C virus, 48 h, no unit in table, hit threshold in μM
Procedure: (§1) The identification of inhibitors of HCV replication and/or proliferation has been facilitated by the development of a cell based system to study HCV replication and assay for HCV inhibitors. Inhibition of HCV replication may be performed using the HCV Replicon Assay developed in the laboratories of Bartenschlager (Lohman et al, Science 285, 110-113, 1999) and Rice (Blight et al, Science 290, 1972-1974, 2000). The assay is performed using the Huh-Luc-Neo cell line (Lohman et al, Science 285, 110-113, 1999). Huh-Luc-Neo cells are a human hepatoma cell line (Huh-7) stably expressing a bi-cistronic subgenomic replicon containing the HCV IRES in which the structural proteins of HCV had been deleted and replaced by a construct containing sequences coding for the firefly luciferase reporter gene, the neomycin selectable marker and the EMCV IRES to direct expression of a truncated HCV genome expressing the […] NS3, NS4A, NS4B, NS5A, and NS5B. HCV targets through which inhibitors could act to inhibit replication include the NS3 protease, the helicase/ATPase, NS5A, the NS5B- RNA dependent RNA polymerase, and the HCV IRES.
(§2) Expression of HCV IRES driven luciferase reporter activity and HCV RNA is measured to obtain indirect and direct measures of replication of HCV RNA respectively. Inhibitors of HCV replication and/or proliferation are determined by initially identifying molecules that inhibit expression of the HCV IRES driven luciferase reporter in this HCV Replicon Luciferase Assay. Cell viability assays and control cell based luciferase assays are then run on hits identified in the HCV Replicon Luciferase Assay to eliminate cytoxic compounds and non-specific compounds which act by inhibiting the luciferase enzyme.
Day 0 Cell Seeding and Compound Treatment: Huh-Luc-Neo Cells are seeded at 25,000/well in an opaque-walled 96 plate with Growth Medium (DMEM phenol red free+PS+2 mM glutamine; 100 μl/well). The compounds to be tested are added to the experimental wells (10 μl/well at 10× assay concentration) and the cells are then incubated (5% CO2, 37° C.) for 48 h.
(§3) Day 2 Reagent Preparation and Luciferase Assay: The Bright-Glo Luciferase Assay Buffer (Promega) is thawed and equilibrated to room temperature prior to use. The lyophilized Bright-Glo Luciferase Assay Substrate is equilibrated to room temperature prior to use. 10 ml of Bright-Glo Luciferase Assay Buffer is transferred to 1 vial of Bright-Glo Luciferase Assay Substrate bottle and mixed by gently with a Vortex. 100 ul of Bright-Glo Luciferase Assay reagent (Bright-Glo Luciferase Assay Buffer+Bright-Glo Luciferase Assay Substrate Mixture) is added to each well. The well contents are mixed for 5 min. on an orbital shaker at room temperature to induce cell lysis and the luminescence is then measured using a luminometer. The data is analyzed and IC50s are determined using GraphPad Prism 4 software. Hits validated in the Replicon Luciferase assay have IC50s<8.0 μM and show<30% inhibition of Cell Viability at a compound concentration of 100 μM (Cell Titer Glow Assay, cell viability assay conditions identical to HCV Replicon Luciferase Assay conditions).

Huh-Luc-Neo cells = assay: CellTiter-Glo Cell Viability Assay; format: cell-based, human; conditions: for Toxicity % Inhibition at 50 uM (2 doses): inhibition of cell viability at 50 uM, conditions as in Replicon RNA Assay; for Toxicity % Inhibition at 100 um (1 dose): inhibition of cell viability at 100 um, conditions as in Replicon Luciferase Assay (48 h)
Procedure: as §3
(§4) Day 3, Quantitative PCR Based Measurement of HCV RNA (Taqman Assay): Quantitative PCR analysis to measure HCV RNA expression from cDNA synthesized on Day 2 is performed using the ABI 9700 HT Sequence Detection System (Applied Biosystems) as previously described (Lohman et al, Science 285, 110-113, 1999). The data is analyzed and IC50s are determined using GraphPad Prism 4 software. Hits validated in the Replicon RNA Assay have IC50s<8.0 μM and show <30% inhibition of Cell Viability at a compound concentration of 50 μM (Cell Titer Glow Assay, cell viability assay conditions identical to HCV Replicon RNA Assay conditions).
Day 0, Cell Seeding and Compound Treatment: Huh-Luc-Neo Cells are seeded at 25,000/well in an opaque-walled 96 plate with Growth Medium (DMEM phenol red free+PS+2 mM glutamine; 100 ul/well). The compounds to be tested for inhibition of cell viability are added to the experimental wells (10 μl/well at 10× assay concentration) and the cells are then incubated (5% CO2, 37° C.) for 48 h.
Day 2, Reagent Preparation and Assay: The CellTiter-Glo Buffer is thawed and equilibrated to room temperature prior to use. The lyophilized CellTiter-Glo Substrate is equilibrated to room temperature prior to use. 10 ml of CeliTiter-Glo Buffer is transferred to 1 vial of CellTiter-Glo Substrate and mixed by gently with a Vortex. 100 μl of CellTiter-Glo Assay reagent (CellTiter-Glo Buffer+CellTiter-Glo Substrate Mixture) is added to each well. The well contents are mixed for 5 min. on an orbital shaker at room temperature to induce cell lysis and the luminescence is then measured using a luminometer.

[2] = test system: HCV Replicon (HCV RNA in Huh-Luc-Neo cells); assay: HCV Replicon RNA Assay (Taqman); format: cell-based, Hepatitis C virus; conditions: Hepatitis C virus, compound added day 0 and day 1, no unit in table, hit threshold in μM
Procedure: as §1, §2
Day 0, Cell Seeding and Compound Treatment: Huh-Luc-Neo Cells are seeded at 25,000/well in an opaque-walled 96 plate with Growth Medium (DMEM phenol red free+PS+2 mM glutamine; 100 μl/well). The compounds to be tested are added to the experimental wells (10 μl/well at 10× assay concentration) and the cells are then incubated (5% CO2, 37° C.).
Day 1, Media Change and Compound Treatment: 24 hours after the initial compound treatment the cell culture media is aspirated from the wells and fresh Growth Medium is added (DMEM phenol red free+PS+2 mM glutamine; 100 μl/well). The compounds to be tested are then added to the appropriate experimental wells (10 μl/well at 10 × assay concentration) and the cells are then incubated (5% CO2, 37° C.) for an additional 24 hrs.
Day 2, RNA Isolation and cDNA Synthesis: The cells are washed with 1× Phosphate Buffered Saline (PBS) once.
as §4

Compound	IC50 [1] [µM]	Toxicity % Inhibition at 50 uM (2 doses) (Huh-Luc-Neo cells) [%]	Toxicity % Inhibition at 100 um (1 dose) (Huh-Luc-Neo cells) [%]	IC50 [2] [µM]
COc1ccc(-c2c(OCc3cccc(C(F)(F)F)c3)c3ccccc3oc2=O)cc1 [VQ_36312]	3.06	40.8	5.0	0.89
CCCCCC/N=C/c1c(Nc2ccc(OC)cc2)c2ccccc2oc1=O [VQ_36468]	43.3	16.3	40.7	0.71
Cc1ccc(COc2c(Cc3ccc(C)cc3)c(=O)n(Cc3ccc(C)cc3)c3ccccc23)cc1 [VQ_33645]	2.33	17.2	21.5	> 30
COc1ccc2c(OCc3cccc(C)c3)c(Cc3cccc(C)c3)c(=O)oc2c1 [VQ_31729]	3.53	5.1	3.0	0.36
Cc1ccc(COc2c(Cc3ccc(C)cc3)c(=O)oc3ccccc23)cc1 [VQ_31715]	2.8	13.4	53.4	0.55
Cc1cc2oc(=O)c(Cc3ccc(F)cc3F)c(OCc3ccc(F)cc3F)c2cc1C [VQ_32806]	5.57	8.3	16.5	1.4
O=c1oc2ccccc2c(OCc2ccc(C(F)(F)F)cc2)c1Cc1ccc(C(F)(F)F)cc1 [VQ_31712]	4.92	10.0	16.6	> 30
COc1ccc(Nc2c(/C=N/C3CCCCC3)c(=O)oc3ccccc23)cc1 [VQ_36467]	51.1	13.9	22.8	0.46
COc1ccc2c(OCc3cccc(C(F)(F)F)c3)c(Cc3cccc(C(F)(F)F)c3)c(=O)oc2c1 [VQ_31754]	5.45	1.9	2.5	5.35
COC(=O)CNCc1c(Nc2ccc(C)cc2)c2ccccc2oc1=O [VQ_36341]	0.28	31.2	14.6	0.4
COc1ccc2c(OCc3ccc(C(F)(F)F)cc3)c(Cc3ccc(C(F)(F)F)cc3)c(=O)oc2c1 [VQ_31758]	6.16	2.6	14.7	5.24
COc1ccc(Nc2c(/C=N/c3ncccn3)c(=O)oc3ccccc23)cc1 [VQ_36470]	59.9	−2.7	12.5	4.08
COc1ccc(Nc2c(/C=N/c3ccc(Cl)cc3)c(=O)oc3ccccc23)cc1 [VQ_36471]	0.04	15.2	9.8	1.78
O=c1oc2ccccc2c(OCc2cccc(C(F)(F)F)c2)c1Cc1cccc(C(F)(F)F)c1 [VQ_31711]	5.16	4.3	4.6	0.12
COc1ccc2c(OCc3ccccc3C)c(Cc3ccccc3C)c(=O)oc2c1 [VQ_31738]	5.44	6.1	23.6	0.21
COc1ccc2c(OCc3ccc(F)c(F)c3)c(Cc3ccc(F)c(F)c3)c(=O)oc2c1 [VQ_31748]	5.38	4.9	10.0	1.97
COc1ccc(Nc2c(/C=N/c3cc(Cl)cc(Cl)c3)c(=O)oc3ccccc23)cc1 [VQ_36594]	0.74	13.7	9.1	> 30
COc1ccc2c(OCc3cccc(Cl)c3)c(Cc3cccc(Cl)c3)c(=O)oc2c1 [VQ_31734]	3.84	0.7	4.3	0.67
COc1ccc(Nc2c(/C=N/c3nc4ccccc4s3)c(=O)oc3ccccc23)cc1 [VQ_36469]	53.6	3.3	14.7	4.16
COc1ccc(Nc2c(/C=N/c3ccc(C)cc3)c(=O)oc3ccccc23)cc1 [VQ_36472]	0.03	6.5	5.9	0.85
Cc1ccc(Nc2c(CNc3ncccn3)c(=O)oc3ccccc23)cc1 [VQ_36343]	0.13	37.9	21.1	0.16
